The text below walks through data of US20240287054A1, “COMPOUNDS THAT BIND NON-CANONICAL G-QUADRUPLEX STRUCTURES AND METHODS OF MAKING AND USING THE SAME” (The U.S.A., as Represented by the Secretary, Department of …, priority 2021, published 2024).

Experiment [1] has as its system MANGO II RNA G4. Kind of experiment: SPR binding to MANGO II RNA G4. The conditions noted are these: duplex-containing RNA G4. For orientation: In SPR one partner is held on a chip, and binding of the other changes the refractive index at the surface.
In experiment [2] the target is five 5′Cy5-labeled G4s from cancer-relevant genes (BCL2, KRAS, mTOR, NRAS, telomeric DNA). Kind of experiment: FIA selectivity profiling with five other 5′Cy5-labeled G4s. Format: binding. The conditions noted are these: five 5′Cy5-labeled G4s other than MYCN.
Experiment [3] concerns the target MYCN G4 DNA. Nature of the experiment: Microscale thermophoresis (MST) with 3′-Cy5 MYCN G4 DNA. Also on record: species or system human. The conditions noted are these: 3′-Cy5 labeled MYCN G4, 1:1 binding model; read-out: binding affinity by MST. Here is the method: Microscale thermophoresis (MST). MST experiments were carried out on a Monolith NT.115 system (NanoTemper Technologies). The 3′-Cy5 MYCN G4 DNA solutions were prepared in 10 mM Tris (pH 7.5), 100 mM KCl, 0.005% T20, annealed (according to the above-mentioned method), and diluted to 100 nM (2×). The DMSO solutions of small molecules were prepared in the buffer with a series 1:1 dilution, resulting in 2× of designed concentrations (10% DMSO). Then, DNA samples were 1:1 (v/v) mixed with corresponding small molecule solutions, resulting in 50 nM DNA and 5% DMSO. Finally, MST signals were detected in triplicate capillaries, and the dissociation constant was determined by fitting the curve using a single-site model (MO.Affinity Analysis v2.3).
Background: In MST a laser heats a spot of the sample, and binding alters the fluorescence response.

Experiment [4] deals with MYCN G4 DNA (hairpin minor groove). Nature of the experiment: Fluorescence displacement assay with Hoechst 33258. In kind it is binding, human. On the procedure: Fluorescence displacement assay. Fluorescence displacement assays were carried out by using two classical minor groove binders (Hoechst 33258 and netropsin). Hoechst 33258, as a fluorophore, was prepared at 5 μM concentration in the buffer (10 mM Tris, pH7.0, 100 mM KCl), and then titrated with different concentrations of unlabeled MYCN G4 oligonucleotides. For displacement, either compound MY-1 or netropsin was added into the solution resulting in a final concentration of 5 μM or 50 μM. Fluorescence signals were obtained with an excitation wavelength of 352 nm and an emission wavelength of 500 nm.

Experiment [5] has as its system NBEB cells. Nature of the experiment: Incucyte live cell imaging of cell confluence. As to conditions: 4-day measurement after single treatment, 0-45 μM. In kind it is cell-based. On the procedure: Cell lines and cell culture. The neuroblastoma cell line NBEB (Single Copy MYCN) cells were used to evaluate the efficacy of the MYCN/MYCNOs G-quadruplex binding molecules. NBEB came from stocks in Pediatric Oncology Branch, National Cancer Institute, National Institutes of Health, Bethesda, MD and have been […]. Cells were cultured in RPMI-1640, supplemented with 10% FBS (Atlanta Biologicals, Atlanta), 2 mM glutamine (Life Technologies, New York), and antibiotics (penicillin 100 μg/mL, streptomycin 100 μg/mL; Life Technologies, New York) at 37° C. in a 5% CO2 incubator.
To examine the effects of G4-binding compounds on NBEB cells, live-cell imaging was performed using an Incucyte interface (described below). […] To examine the time-dependent decrease in MYCNOs expression, cells were treated with 22.5 μM and 45 μM MY-8 and analyzed at various times (0, 4, 24, 48, 72 and 96 h). To validate cell viability, a Trypan Blue exclusion test was performed following treatment at 48 h and 96 h post treatment and the proportion of live versus dead cells was calculated using a hemocytometer.
Incucyte live cell imaging system. […] Incucyte measured cell confluence from pre-defined processing definitions for NBEB NB cells. […]

`COc1ccc(-c2noc(-c3ccc(NCCCNc4c5ccc(Cl)cc5nc5ccc(OC)cc45)nn3)n2)cc1` [B33, N^1-(6-chloro-2-methoxyacridin-9-yl)-N^3-(6-(3-(4-methoxyphenyl)-1,2,4-oxadiazol-5-yl)pyridazin-3-yl)propane-1,3-diamine]: the “binding to MANGO II RNA G4 by SPR” value in experiment [1] is “weak binding”.
Regarding `COc1ccc(-c2noc(-c3ccc(NCCCN4CCCC4)nn3)n2)cc1` [MY-1, 6-(3-(4-methoxyphenyl)-1,2,4-oxadiazol-5-yl)-N-(3-(pyrrolidin-1-yl)propyl)pyridazin-3-amine], the “binding affinities (KD) to other G4s” value in experiment [2] was “no significant quenching behavior”. Further, the Kd in experiment [3] is 8.1 ± 1.7 µM. Further, the “displacement of Hoechst 33258 at 5 μM” value in experiment [4] (5 μM competitor) is recorded as “no measurable change”. The “displacement of Hoechst 33258 at 50 μM” value in experiment [4] (50 μM competitor) is listed as “partial fluorescence decrease”.
On to `COc1ccc(-c2noc(-c3ccc(NCCCN4CCCCCC4)nn3)n2)cc1` [MY-8, N-(3-(azepan-1-yl)propyl)-6-(3-(4-methoxyphenyl)-1,2,4-oxadiazol-5-yl)pyridazin-3-amine], for which, in experiment [5], the “NBEB cell growth (cell confluence)” value was “significant inhibition of NBEB cell growth”.
